Measurements from publication PMC3877901, “Screening Mangrove Endophytic Fungi for Antimalarial Natural Products” (Marine Drugs, 2013).
Entries after “also recorded” stand apart in the source; their conditions may differ. Like-named read-outs stand apart in the source and are kept apart here.

Tests used:
[1] = tested on: A549 human lung adenocarcinoma epithelial cells; assay: In vitro toxicity assay: cytotoxicity against A549 cells (CellTiter 96 Aqueous One, 72 h); details: for IC50: Homo sapiens, A549, 72 h, read-out: IC50 (nM) A549
[2] = tested on: Plasmodium falciparum (3D7, a drug sensitive strain); assay: Malaria assay: anti-malarial activity against Plasmodium falciparum (3D7); format: cell-based
[3] = tested on: A549 human lung adenocarcinoma epithelial cells
[4] = Plasmodium falciparum 3D7, read-out: IC50 (nM) 3D7
[5] = Plasmodium falciparum, 3D7, read-out: IC50 (nM) 3D7

| SMILES | IC50 [1] | IC50 [2, 4] | IC50 [2, 5] | also measured |
| --- | --- | --- | --- | --- |
| C[C@H]1CC(=O)O[C@@H]1[C@@]1(CO)CC(=O)c2c(ccc(-c3ccc(O)c4c3O[C@](CO)([C@H]3OC(=O)C[C@@H]3C)CC4=O)c2O)O1 [Compound 15, diaporthochromone A] | > 25000 nM | > 25000 nM |  |  |
| CC(=O)OC[C@]12Oc3ccc(-c4ccc5c(c4O)C(=O)C4=C(O)C[C@@H](C)[C@@H](OC(C)=O)[C@]4(CO)O5)c(O)c3C(=O)C1=C(O)C[C@@H](C)[C@H]2OC(C)=O [Compound 14, dicerandrol D] | 7800 nM |  | 600 nM | cytotoxicity relative to malaria activity ([3]; human): at least 10 fold; S.I. A549/3D7 (selectivity index) [1]: 13; antimalarial activity (in words) [2]: nanomolar antimalarial activity; also recorded: strong activity against P. falciparum; also recorded: nanomolar malaria activity |
| CCN(CC)CCCC(C)Nc1ccnc2cc(Cl)ccc12 (centres unmarked) [CQ, chloroquine, reference compound] | > 25000 nM |  | 4.5 nM |  |
| CC(=O)OC[C@]12Oc3ccc(-c4ccc5c(c4O)C(=O)C4=C(O)C[C@@H](C)[C@@H](OC(C)=O)[C@@]4(CO)O5)c(O)c3C(=O)C1=C(O)C[C@@H](C)[C@H]2OC(C)=O [Compound 13, Dicerandrol B] | > 25000 nM |  | > 25000 nM | cytotoxicity (in words) [3]: failed to show either activity; antimalarial activity (in words) [2]: failed to show either activity |
| CCC(C)CC(C)/C=C/C=C/C(=O)O (centres unmarked) [Compound 18, (2E,4E)-6,8-Dimethyldeca-2,4-dienoic Acid] | > 25000 nM | > 25000 nM |  | antimalarial activity (in words) ([2]; P. falciparum 3D7): inactive |
| CC1CC(=O)OC1C1(CO)CC(=O)c2c(ccc(-c3ccc4c(c3O)C(=O)CC(CO)(C3OC(=O)CC3C)O4)c2O)O1 (centres unmarked) [Compound 16, Diaporthochromone B] | > 25000 nM | > 25000 nM |  |  |
| C=C1C(C)C2C(Cc3ccccc3)NC(=O)C23C(O)C=CC(C)(O)CC(C)CC=CC3C1O (centres unmarked) [Compound 6] |  | < 20 nM |  |  |
| C=C1C2CC3OC(=O)C=CC=CC(C(C)O)OCCC(C)=CC(=O)OCC4(CCC(C)=CC4O2)C13C (centres unmarked) [Compound 10] | < 200 nM |  | < 20 nM |  |
| CCCc1c(Cl)c(OC)cc(OC)c1C(=O)O [Compound 11, acremonisol A] | > 38700 nM | 36000 nM |  | antimalarial activity (in words) ([2]; P. falciparum 3D7): devoid of antimalarial activity |
| C=C1[C@@H](C)[C@H]2[C@H](Cc3ccccc3)NC(=O)[C@]23[C@H](OC(C)=O)/C=C/[C@@](C)(O)C(=O)[C@@H](C)C/C=C/[C@H]3[C@@H]1O [Compound 4, cytochalasin D] |  |  | 25.8 nM |  |
| CC(=O)OC1C=CC(C)(O)C(=O)C(C)CC=CC2C3OC3(C)C(C)C3C(Cc4ccccc4)N(C)C(=O)C123 (centres unmarked) [Compound 8] |  |  | 26 nM |  |
| CCCCC/C=C(/C(=O)O)C(C)C(=O)O (centres unmarked) [Compound 19, piliformic acid] | > 25000 nM | > 25000 nM |  | antimalarial activity (in words) ([2]; P. falciparum 3D7): inactive |
| CC(=O)OC1C2OC2C(C)(O)C(=O)C(C)CC=CC2C(O)C(C)=C(C)C3C(Cc4ccccc4)NC(=O)C213 (centres unmarked) [Compound 1] |  |  | < 20 nM |  |
| CC(=O)OC1C=CC(C)(O)C(=O)C(C)CC=CC2C(O)C3(C)OC3(C)C3C(Cc4ccccc4)NC(=O)C123 (centres unmarked) [Compound 3] |  |  | < 20 nM |  |
| CC(=O)OC1C=CC(C)(O)C(=O)C(C)CC=CC2C(O)C(C)=C(C)C3C(Cc4ccccc4)NC(=O)C123 (centres unmarked) [Compound 2] |  |  | 136 nM |  |
| O=C1C(O)=C([C@H]2CC[C@H](c3ccc(Cl)cc3)CC2)C(=O)c2ccccc21 [ATO, atovaquone, reference compound] | > 25000 nM | 0.3 nM |  |  |
| COc1ccc(C)c2c1C(=O)OC(C)C2 (centres unmarked) [Compound 12, 3,5-dimethyl-8-methoxy-3,4-dihydroisocoumarin] | > 48500 nM | > 48500 nM |  | antimalarial activity (in words) ([2]; P. falciparum 3D7): devoid of antimalarial activity |
| C[C@H]1[C@@H](O)O[C@@H]2O[C@@]3(C)CC[C@H]4[C@H](C)CC[C@@H]1[C@@]24OO3 [DHA, dihydroartemisinin, reference compound] | > 25000 nM | 0.8 nM |  |  |
| CC(=O)OC1C=CC(C)(O)C(=O)C(C)CC2OC2C2C3OC3(C)C(C)C3C(Cc4ccccc4)N(C)C(=O)C132 (centres unmarked) [Compound 7] |  |  | 290 nM |  |
| C=C1C(C)C2C(Cc3ccccc3)NC(=O)C23C(OC(C)=O)C=CC(C)(O)CC(C)CC=CC3C1O (centres unmarked) [Compound 5] |  |  | < 20 nM |  |
